Assay results reported in patent US4929739A, “Complexes of tellurium and selenium derivatives” (Bar-Ilan University, priority 1988, dated 1990).
Read-outs that look alike come from different tables or passages of the source.

What was measured:
[1] = test system: West Nile virus; assay: West Nile virus infections in mice; type: in vivo; conditions: 10 μg/day/mouse
Description: (§1) Preliminary toxicity studies in mice have established an LD50 of 300 μg./25 g of body weight in 6 week old mice for the compound of Example 1. The compounds may be used as anti-bacterial or anti-viral agents in plants or in animals. Virus infections such as West Nile virus infections in mice are susceptible to the compound of the Example 1 at a dose of 10 μg/day/mouse. Plant bacterial infections such as crown gall caused by Agrobacterium tumefaciens may be treated or prevented by the application of a 0.1% solution of compounds of the invention.

[2] = preliminary toxicity studies in mice; type: in vivo; conditions: 6 week old mice
Description: as §1

[3] = test system: producer T-cell lymphocytes; assay: lymphokine production in producer T-cell lymphocytes in vivo; conditions: alone
[4] = test system: IL-2 producer cells; assay: proliferation of IL-2 producer cells; type: cell-based
[5] = test system: producer T-cell lymphocytes; assay: lymphokine production in producer T-cell lymphocytes in vitro; type: cell-based; conditions: alone
[6] = solubilization in aqueous buffer; type: physicochemical
From the text: The complexes of the invention may be formed by contacting a compound of Formulas A-E with a non-toxic pharmaceutically acceptable complexing agent which forms a water soluble complex with said tellurium or selenium compound. Suitable complexing agents include hydroxy polycarboxylic acids, polycarboxylic acids or polyhydroxy polycarboxylic acids. Generally, it is preferred to prepare the complexes of the invention by contacting a compound of Formulas A-E with a buffer system containing either citric acid or tartaric acid and a corresponding alkali metal salt thereof, such as sodium or potassium.
Generally equimolar amounts of acids and the corresponding alkali metal salts may be combined in aqueous solutions with a compound of Formulas A-E to form the complex of the invention; 0.05M-0.5M concentration of the buffer are preferred but higher or lower amounts may be utilized provided that the concentration is adequate to dissolve the particular compound of Formulas A-E. Higher molarities may be used to provide concentrates that may be diluted prior to IV administration or to prepare other dosage forms. The amount of the compound of Formulas A-E is dependent on the ultimate use of the product. […] This is in contrast to the phosphate buffer (PBS) from which only about 200 mcg/ml of ammonium trichloro (dioxoethylene-0,0') tellurate can be solubilized. […]

[7] = test system: human mononuclear cells; assay: stimulation of human mononuclear cells, proliferation (3H-methylthymidine); type: cell-based; parameters: unit not given here; conditions: Table 3
Description: Citrate and tartrate complexes of ammonium trichloro (dioxoethylene-0,0') tellurate are tested for the stimulation of human mononuclear cells.
Venous whole blood (with heparin; Evans 10 IU/ml blood) is diluted with RPMI in a ratio of 1:1. […] Each tube is provided with 3 ml Lymphoprep and 6 to 7 ml diluted blood. The tubes are centrifuged 30 minutes at 1600 rpm at room temperature. After the centrifugation mononuclear cells are collected from the interphase fraction and washed with RPMI three times. The cells are resuspended in RPMI, counted on a hemocytometer, using trypan blue to test for viability and then are brought to a concentration of […] in enriched RPMI. The concentrations set forth in Table 3 were added in a volume of 10% of cell mixture. Aliquots of 0.2 ml from each sample were placed in wells of microplates (NUNC) (triplicates). The microplates are incubated for 72 hours at 37° C. after which ^ 3 H-methylthymidine, 1U Ci/well (Nuclear Research Center, Israel) are added to the cultures. Cells were further incubated overnight and harvested with a cell harvester.

[8] = test system: IL-2; assay: mouse spleen assay, IL-2 activity of supernatants (tritiated thymidine); type: cell-based, mouse (male Balb-c); conditions: for IL-2 activity, 12.5% supernatant / IL-2 activity, 25% supernatant: Table 1, PMA, 96 h; for IL-2 production, supernatant 12.5% / IL-2 production, supernatant 25%: Table 2; for IL-2 activity, 12.5% supernatant / IL-2 production, supernatant 12.5%: 12.5% supernatant; for IL-2 activity, 25% supernatant / IL-2 production, supernatant 25%: 25% supernatant
Description: Two citrate buffer solutions are prepared by combining aqueous 0.05M sodium citrate with 0.05M citric acid or 0.1M sodium citrate and 0.1M citric acid. […] To these solutions are added up to 5 mg/ml of ammomium trichloro (dioxoethylene-0,0') tellurate.
After storage at various temperatures for about two and a half months, dilutions of these solutions were prepared and a mouse spleen assay was performed as follows:
Spleens were removed from male Balb-c mice 6 to 8 weeks of age. The spleen cells were pushed through stainless steel 60 mesh (U.S. standard) nets resting in […] Petri dishes containing PBS in order to separate the cells. The cells were then collected into centrifuge tubes and spun at 1000 rpm for 10 minutes. The supernatant was discarded and cells were treated with 5 ml of hypotonic buffer (0.15 MNH4 Cl; 0.01M KHCO3 dissolved in double distilled water, pH 7.2) for exactly two minutes. Thereafter, PBS* was added to the cells amd the test tubes were centrifuged for 10 minutes at 1000 rpm. The cells were rinsed twice and counted in a heamocytometer using trypan blue to test for viability. The cells were brought to a concentration of 10^7 viable cells/ml. […] Thereafter, the cells were incubated at 37° C., 7.5% CO2 for 96 h. Supernatants were collected and assayed for IL-2 activity using tritiated thymidine (^3 H-TdR).
A 0.04M tartrate buffer in also prepared using the same procedures. The complex is formed by adding ammonium trichloro (dioxoethylene-0,0'-) tellurate to the aqueous tartrate buffer. The effectiveness of the complex in stimulating IL-2 production was determined in the mouse spleen assay.

For `Cl[Te]1(Cl)(Cl)OCCO1.N` [Example 1, ammomium trichloro (dioxoethylene-0,0') tellurate], the “susceptibility of West Nile virus infections” value [1] was “susceptible” and the LD50 [2] was 300 μg./25 g of body weight.
For `O=[Te]=O` [TeO2], the “induction of lymphokine production in vivo” value [3] was “will induce lymphokine production”, the “proliferation in producing cells such as IL-2 producer cells” value [4] was “will not cause proliferation” and the “induction of lymphokine production in vitro” value [5] was “will induce lymphokine production”.
With `Cl[TeH]1(Cl)(Cl)OCCO1` [ammonium trichloro (dioxoethylene-0,0') tellurate] the solubility ([6]; citrate buffer, aqueous buffer, read-out: concentration solubilized in citrate) was ≥ 5000 µg/mL, the solubility ([6]; phosphate buffer (pbs), read-out: concentration solubilized in phosphate buffer) was ~200 µg/mL and the “proliferation of mononuclear cells” value ([7]; 0.05 μg/ml, PMA 0.5 ng/ml cells) was 6663. For the same compound, the “proliferation of mononuclear cells” value ([7]; 0.05 μg/ml, PMA 1.5 ng/ml cells) was 12923, the “proliferation of mononuclear cells” value ([7]; 0.1 μg/ml, PMA 0.5 ng/ml cells) was 19810 and the “proliferation of mononuclear cells” value ([7]; 0.1 μg/ml, PMA 1.5 ng/ml cells) was 42857. For the same compound, the “proliferation of mononuclear cells” value ([7]; 0.5 μg/ml, PMA 0.5 ng/ml cells) was 2945, the “proliferation of mononuclear cells” value ([7]; 0.5 μg/ml, PMA 1.5 ng/ml cells) was 3287 and the “IL-2 activity, 12.5% supernatant” value ([8]; 0.05 μg/ml) was 1865 cpm. The “IL-2 activity, 25% supernatant” value ([8]; 0.05 μg/ml) was 3762 cpm, the “IL-2 activity, 12.5% supernatant” value ([8]; 0.1 μg/ml) was 28035 cpm and the “IL-2 activity, 25% supernatant” value ([8]; 0.1 μg/ml) was 44378 cpm. The “IL-2 activity, 25% supernatant” value ([8]; 0.5 μg/ml ammonium trichloro(dioxoethylene) tellurate) was 43833 cpm, the “IL-2 activity, 12.5% supernatant” value ([8]; 0.5 μg/ml) was 35270 cpm and the “IL-2 production, supernatant 12.5%” value ([8]; 0.05 μg/ml) was 1865 cpm. For the same compound, the “IL-2 production, supernatant 12.5%” value ([8]; 0.1 μg/ml) was 28035 cpm, the “IL-2 production, supernatant 25%” value ([8]; 0.1 μg/ml) was 44378 cpm and the “IL-2 production, supernatant 12.5%” value ([8]; 0.5 μg/ml) was 35270 cpm. The “IL-2 production, supernatant 25%” value ([8]; 0.5 μg/ml) was 43833 cpm and the “IL-2 production, supernatant 25%” value [8] was 3762 cpm.
